In PMC6566782, “Prodrugs for Skin Delivery of Menahydroquinone-4, an Active Form of Vitamin K2(20), Could Overcome the Photoinstability and Phototoxicity of Vitamin K2(20)” (International Journal of Molecular Sciences, 2019):

Legend:
HaCaT cells [1] = test: Intracellular ROS generation assay (DCFH-DA) with or without UVA irradiation; format: cell-based, Human; conditions: UVA irradiation 15 J/cm^2
Method: (§1) The in vitro phototoxicity of MK-4 and MKH derivatives were assessed by measuring the intracellular ROS generation and the viability of human epidermal keratinocyte cells (HaCaT) after UVA irradiation in the presence or absence of MK-4 and MKH derivatives. Intracellular ROS generation was determined using the cell permeable probe 2′,7′-dichlorofluorescein diacetate (DCFH-DA), which rapidly reacts with hydroxyl radicals. Cells without drug treatment or UVA irradiation were used as the control. ROS generation and cell viability are shown in Figure 5 and Figure 6, respectively.
Intracellular ROS generation was measured using 2′,7′-dichlorofluorescein diacetate (DCFH-DA; Invitrogen, Carlsbad, CA, USA) as a fluorescent probe. HaCaT cells were seeded at 1.0 × 10^5 cells/well in 96-well plates and cultured overnight. Thereafter, cells were washed with PBS and incubated with 10 µM DCFH-DA solution in PBS at 37 °C for 1 h. Following incubation, test compound solutions in PBS described above were added to each well and re-incubated for 1 h. After incubation, cells were irradiated with UVA at an irradiation intensity of 15 J/cm^2 and the fluorescence intensity (Ex: 485 nm, Em: 530 nm) was measured using an Infinite M200 PRO (Tecan Life Sciences).

HaCaT cells [2] = test: Intracellular MKO levels after treatment with sunlight-irradiated MK-4 and MKH derivatives; format: cell-based, Human; conditions: 48 h treatment, compound irradiated with sunlight 12,000 lx for 3 h
Method: To confirm whether MKH prodrugs could successfully deliver MKH to dermal cells under sunlight, the intracellular level of MKO in HaCaT cells was determined following administration of MK-4 and MKH derivatives in the presence or absence of artificial sunlight irradiation. […] MKO levels were increased after administration of MKH-DMG and MKH-SUC in sunlight, but these were approximately 60% that of the cells treated with their respective compounds in shading conditions.
(§2) HaCaT cells were seeded at 5.0 × 10^4 cells/well in 24-well plates and allowed to attach for 48 h. Cells were cultured in medium containing 5 µM MK-4, MKH-DMG, or MKH-SUC, then medium was removed and cells were washed twice with PBS. Cells were collected in 500 µL of PBS and sonicated. Cell homogenates were combined with an equal volume of methanol and three times volume of n-hexane, vortexed for 2 min, and centrifuged at 1750× g for 10 min. The organic layer was evaporated under N2 gas. The residue was reconstituted with 20 μL of methanol, and subjected to LC-MS/MS, as described below. The protein concentration of the cell homogenate was determined using a BCA protein assay kit (Thermo Fisher Scientific, Waltham, MA, USA).
Solutions of 200 µM MK-4, MKH-DMG, or MKH-SUC in ethanol were irradiated with artificial sunlight for 3 h at 12,000 lx in quartz cells. After irradiation, ethanol was evaporated under N2 gas. […]

HaCaT cells [3] = test: Intracellular MKO and MK-4 levels after treatment with MK-4 and MKH derivatives (MKH delivery), LC-MS/MS; format: cell-based, Human; conditions: 5 µM compound, intracellular MK-4, mean ± SD (n = 3)
Method: as §2, with “The potential of MKH derivatives and MK-4 as dermal delivery systems of MKH were assessed by measuring intracellular MKH levels. However, accurate measurement of MKH is difficult because MKH is readily oxidized to MK-4. […] Thus, MKO levels in HaCaT cells can reflect the amount of MKH delivered into the cell and subsequently converted in the carboxylation of VKDP. In addition, MK-4 level in cells after MKH prodrugs treatment indicates the oxidative product of MKH. In this study, the intracellular concentration of MKO and MK-4 in HaCaT cells over time after treatment with MK-4, MKH-DMG, or MKH-SUC (5 μM) was determined by LC-MS/MS (Figure 7). HaCaT” for “HaCaT”, “μM” for “µM”, “μL” for “µL”, “The organic layer was evaporated under N2 gas.” left out, “USA). […]” for “USA).”

[4] = Singlet oxygen generation assay (p-nitrosodimethylaniline-based ROS assay) after UVA irradiation; format: physicochemical; conditions: phosphate-buffered aqueous solution pH 7.4, UVA irradiation 0–15 J/cm^2
Method: It has been reported that singlet oxygen promotes the peroxidation of skin surface lipids, resulting in the induction of skin inflammation. Thus, we measured the irradiation intensity-dependent generation of singlet oxygen by MK-4, MKH-DMG, and MKH-SUC in phosphate-buffered aqueous solution after UVA irradiation using a p-nitrosodimethylaniline-based ROS assay (Figure 4).
MK-4 and MKH derivatives were dissolved in a phosphate buffer (NaPB, pH 7.4) containing 0.2% polyoxyethylene hydrogenated castor oil 40 (HCO 40, obtained as a gift sample from Nikko Chemicals Co., Ltd., Osaka, Japan), 2% dimethyl sulfoxide, and 0.1% glycerol. The solutions were treated according to the singlet oxygen assay method (The Japanese Center for the Validation of Alternative Methods, JaCVAM) and irradiated with UVA light from a CL-1000L UV Crosslinker (UVP, Upland, CA, USA). Absorbance was measured using an Infinite M200 PRO (Tecan Life Sciences, Zurich, Switzerland).

HaCaT cells [5] = test: Cell viability assay (CellTiter-Glo) 24 h after UVA irradiation; format: cell-based, Human; conditions: 24 h after UVA irradiation 15 J/cm^2
Method: as §1
HaCaT cells were seeded at 1.0 × 10^5 cells/well in 96-well plates and cultured overnight. Thereafter, cells were washed with PBS, and test compound solutions in PBS described above were added to each well and re-incubated for 1 h. After incubation, cells were irradiated with UVA at an irradiation intensity of 15 J/cm^2. After irradiation, cells were washed twice with PBS and replaced in culture medium. After 24 h incubation, cell viability was measured using a CellTiter-Glo® Luminescent Cell Viability Assay (Promega, Madison, WI, USA).

- intracellular ROS level (HaCaT cells [1]): elevated in a dose-dependent manner
- intracellular MKO level after sunlight irradiation compared to shade (HaCaT cells [2]): seriously reduced
- AUCMK-4 (0–72 h) (HaCaT cells [3]): 5.628 ± 0.698 nmol·h/mg of Protein
SMILES: CC(C)=CCC/C(C)=C/CC/C(C)=C/CC/C(C)=C/CC1=C(C)C(=O)c2ccccc2C1=O [MK-4, menaquinone-4, reference compound]
- singlet oxygen generation [4]: increased formation of singlet oxygen in an irradiation energy-dependent manner
- cell viability (HaCaT cells [5]): decreased dose-dependently
